Patent US20240197722A1, “ANTICANCER COMPOSITION INDUCING CELL SENESCENCE AND CELL DEATH” (OSTEONEUROGEN INC., priority 2021, published 2024)

What was measured:
A549 cells [1] = assay: Immunocytochemistry for cell senescence morphology in A549 cells; assay type: cell-based; settings: A549, 20 μM each, 72 hours, FIG. 1
Procedure: The cells were incubated with Rhodamine Phalloidin (Thermo Fisher, Massachusetts, US) for 4 hours at room temperature. After washing, the cells were incubated with Alexa Fluor 488 (Abcam, Cambridge, UK)-conjugated secondary antibody. Images were analyzed by using EVOS M7000 (Invitrogen, CA, USA). Nuclei were counterstained with DAPI.

A549 cells [2] = assay: Immunocytochemistry of p53, p21 and p16 in A549 cells; assay type: cell-based
Procedure: A549 cell line was treated with 1, 5, 10 and 20 μM of the compound of the present invention (ONG41008), respectively, and after 24 or 72 hours, the cells were fixed by using 4% paraformaldehyde, permeabilized with 0.4% TritonX100 and blocked with 1% BSA. The cells were incubated with Anti-p53 (Cell Signaling Technology, Beverly, MA), Anti-p21 (Abcam, Cambridge, UK) and Anti-p16-INK4A (Proteintech, IL, USA) at room temperature for 4 hours. After washing, the cells were incubated with Alexa Fluor 488 (Abcam, Cambridge, UK)-conjugated secondary antibody. Images were analyzed by using EVOS M7000 (Invitrogen, CA, USA). Nuclei were counterstained with DAPI.

A549 cells [3] = assay: Western blot of p53, phospho-p53, p21 and p16 in A549 cells; assay type: cell-based
Procedure: After 24 hours, the cell lysates were clarified by centrifugation at 14,000×g for 10 minutes, and the supernatant was collected. Protein concentration was quantified by Bradford assay (Thermo Fisher, Massachusetts, USA). Afterwards, 25 μg of cellular protein was loaded onto a 10% SDS-PAGE gel and transferred to a nitrocellulose membrane. After blocking with 5% BSA, the membrane was incubated overnight at 4° C. with Anti-p53 (Cell Signaling Technology, Beverly, MA), Anti-phosphor-p53 (Cell Signaling Technology, Beverly, MA), Anti-p21 (Abcam, Cambridge, UK), Anti-p16-INK4A (Proteintech, IL, USA) and Anti-GAPDH (Abcam, Cambridge, UK). After thorough washing, the membrane was incubated with HRP-conjugated secondary antibody. Protein bands were visualized by using ECL reagent (Abfrontier, Korea) and Uvitec HD9 (UVITEC, UK).

A549 cells [4] = assay: Western blot of cell cycle kinases in A549 cells; assay type: cell-based; settings: A549, 50 μM, 24 hours
A549 cells [5] = assay: Intracellular ROS (H2DCFDA) in A549 cells; assay type: cell-based; settings: A549, various concentrations, 24 hours
Procedure: To this end, 1×10^4 cells/mL of A549 cells were dispensed in 96-well plates, and after 24 hours, the cells were treated with 10 μM H2DCFDA (Invitrogen, CA) and incubated at 37° C. in the dark for 1 hour. […] Intracellular ROS were examined by fluorescence microscopy (Thermo, MA) and quantified by fluorescence spectroscopy (Perkin Elmer, MA).

A549 cells [6] = assay: TUNEL and 7AAD apoptosis analysis of A549 cells; assay type: cell-based
Procedure: The TUNEL analysis was performed by using the TUNEL assay kit (Abcam, ab66110) according to the manufacturer's instructions. […] After 24 hours, the cells were harvested and fixed in cold 70% ethanol, and 50 μL of a DNA labeling solution (10 μL of TdT reaction buffer, […], 8 μL of Br-dUTP, 32.5 μL of ddH2O) was added thereto. After 1-hour incubation at 37° C., the cells were washed twice with 300 μL of rinse buffer, and an antibody solution (5 μL of Anti-BrdU-Red antibody, 95 μL rinse buffer) was prepared and added to the washed cells, and the cells were incubated in the dark at room temperature for 30 minutes. 300 μL of 7-AAD/RNase solution was added at last. Each sample was analyzed by using Accuri C6 Plus (BD Bioscience).

H358 cells [7] = assay: CCK-8 cell proliferation assay in H358 cells; assay type: cell-based
Procedure: (§1) H358 cells were seeded in 96-well plates at a concentration of 3×10^4 cells/well for 24 hours.

H358 cells [8] = assay: Microscopic observation of H358 cells; assay type: cell-based; settings: H358, 10 μM, 72 hours
Procedure: as §1

H1299 cells = assay: Immunocytochemistry for multinucleation of H1299 cells; assay type: cell-based; settings: H1299, treated by concentration
PANC1 = assay: CCK-8 cell proliferation assay in PANC1 cells; assay type: cell-based, human
PANCI cells = assay: Immunocytochemistry for multinucleation of PANC1 cells; assay type: cell-based, human; settings: PANC1, treated by concentration
MCF7 = assay: CCK-8 cell proliferation assay in MCF7 cells; assay type: cell-based; settings: Homo sapiens; MCF7, CCK-8, 72 hours
MCF7 cells = assay: Immunocytochemistry for multinucleation of MCF7 cells; assay type: cell-based, human; settings: MCF7, treated by concentration
PC3 cells [9] = assay: Caspase-3/7 activity (apoptosis) in PC3 cells; assay type: cell-based, human; settings: PC3, Caspase-3/7 activity
Procedure: Caspase-3/7 activity was measured by using a Caspase-3/7 assay kit (Promega, G8091). […] Afterwards, Caspase-3/7 activity was analyzed according to the manufacturer's protocol.

PC3 cells [10] = assay: Immunocytochemistry for multinucleation of PC3 cells; assay type: cell-based, human; settings: PC3, treated by concentration
[11] = test system: Normal human lung fibroblasts (NHLF); assay: CCK-8 cell proliferation assay in normal human lung fibroblasts; assay type: cell-based; settings: CCK-8, FIG. 19
NHLF cells = assay: Mitochondrial membrane potential (MTMP) analysis in NHLF; assay type: cell-based, human; settings: measured with MTMP, Caspase3 and LDH, FIG. 20
normal cells = assay: Additional Caspase3/7 analysis in normal cells; assay type: cell-based, human; settings: data not shown
A549 cells [12] = assay: Mitochondrial membrane potential (TMRE) analysis in A549 cells
[13] = A549, mitochondrial membrane potential analysis

In the case of `COc1ccc(-c2cc(=O)c3c(O)c(OC)c(OCCN4CCNC(=O)C4)cc3o2)cc1OC` [ONG41008], the “cell flatness (morphological change of cell senescence)” value (A549 cells [1]) is reported as “specifically observed”, the TP53 nuclear localization (A549 cells [2]; A549, 1 μM, 24 hours) is reported as “nuclear localization was observed” and the “TP53 protein expression level” value (A549 cells [2]; A549, 1 μM, 24 hours) is reported as “not changed”. The p16 expression (A549 cells [2]; A549, 1, 5, 10 and 20 μM, 24 hours) was “up-regulated in proportion to the concentration”, the “p21 expression and localization” value (A549 cells [2]; A549, 24 hours) was “nuclear localized with upregulation” and the p16 induction (A549 cells [3]; A549, 24 hours) was “induced in a concentration-dependent manner”. The p21 induction (A549 cells [3]; A549, 24 hours) was “induced in a concentration-dependent manner”, the “total amount of TP53” value (A549 cells [3]; A549, 24 hours) was “maintained to be the same” and the TP53 phosphorylation (A549 cells [3]; A549, various concentrations, 24 hours) was “phosphorylated in proportion to the increase in the concentration”. For the same compound, the CDK2 expression (A549 cells [4]) was “inhibited”, the CDK6 expression (A549 cells [4]) was “inhibited” and the ROS (A549 cells [5]) was “increased in a concentration-dependent manner”. For the same compound, the apoptosis (A549 cells [6]; A549, 48 hours of treatment) was “apoptosis was observed”, the apoptosis (A549 cells [6]; A549, 72 hours of treatment) was “clearly observed in a compound concentration-dependent manner” and the inhibition of proliferation (H358 cells [7]; H358, 30 μM or more, 72 hours) was “inhibited the proliferation of non-small cell lung cancer cells to a similar level”. For the same compound, the “difference between IC50 of paclitaxel and ONG41008” value (H358 cells [7]; H358, 72 hours, FIG. 9) was 14 fold, the mitotic disruption (H358 cells [8]) was “observed” and the multinucleation (H1299 cells) was “observed”. For the same compound, the IC50 (PANC1; Homo sapiens, PANC-1, PANC1, CCK-8, 72 hours) was 11.8 µM, the “inhibitory effect on proliferation compared to paclitaxel” value (PANC1; PANC1, 10 μM or more) was “more excellent inhibitory effect” and the multinucleation (PANCI cells) was “observed”. For the same compound, the IC50 (MCF7) was 15.4 µM, the multinucleation (MCF7 cells) was “observed” and the EC50 (PC3 cells [9]; Homo sapiens, PC-3) was 20.4 µM. The PC3 apoptosis (PC3 cells [9]; various concentrations) was “induced PC3 apoptosis in a concentration-dependent manner”, the multinucleation (PC3 cells [10]) was “observed” and the “cell proliferation of normal cells” value [11] was “did not inhibit cell proliferation”. The “apoptosis in normal cells” value (NHLF cells) was “did not induce significant apoptosis”, the “caspase3/7 activity in normal cells” value (normal cells) was “did not induce caspase3/7 activity” and the “difference between IC50 of SAHA and ONG41008” value (A549 cells [12]; A549, FIG. 6) was ~20 fold. The “day until which inhibitory effect increased, all cells removed” value (A549 cells [12]; [13]) was 4 days and the “time at which decrease of cell viability / inhibitory effect started” value (A549 cells [12]; [13]) was 48 h.
